From PMC7187334 (Clinical Pharmacology in Drug Development, 2019)
Like-named read-outs stand apart in the source and are kept apart here.

Legend:
[1] = Phase 1 crossover study: rosuvastatin plasma pharmacokinetics; assay type: in vivo, human; conditions: for AUC(0-inf) / half-life / AUC(0-t) / Cmax: human, plasma, oral, 10 mg
Procedure: The primary objective was to evaluate the pharmacokinetics of oral rosuvastatin when administered alone and in combination with oral AZD5718. […] Each participant received 5 single-dose oral study treatments (A-E), with a minimum washout period of 7 days between each treatment period. Participants were randomly assigned to treatments in the order A, B, C, D, E or B, A, C, D, E. Treatments were: […] […] Participants fasted for at least 10 hours before treatment and for at least 4 hours after treatment. Participants receiving treatment E consumed a high-fat breakfast 30 minutes before treatment. Water was permitted as desired except within 1 hour of administration. […] Doses were taken with 240 mL of water. […] At a minimum, each analytical run included a calibration curve, a matrix blank, a control zero sample (matrix blank containing internal standard), a reagent blank, and duplicate quality control samples at 3 concentrations within the calibration range. […] Both assessments were well within the acceptance criteria. […] The pharmacokinetic analysis set for rosuvastatin included all participants who received both rosuvastatin treatments. […] Statistical analyses were performed by […] using SAS version 9.4. Rosuvastatin pharmacokinetics were analyzed using a mixed-effects model, with log-transformed AUC, AUC0-last, and Cmax as the response variables; treatment sequence, period, and treatment as fixed effects; and participant nested within treatment sequence as a random effect. […] LS mean differences and 90%CIs for the effect of formulation or food for log-transformed variables were back transformed to geometric mean ratios and presented as percentages with 90% CIs.

healthy volunteers = assay: Phase 1 crossover study: safety and tolerability (adverse events); assay type: in vivo, human; conditions: rosuvastatin 10 mg, fasted, n = 12
Procedure: Each participant received 5 single‐dose oral study treatments (A‐E), with a minimum washout period of 7 days between each treatment period.
The safety set included all participants who received treatment in the study and for whom any postdose safety data were available. Safety was assessed throughout the study by monitoring adverse events, vital signs (systolic and diastolic blood pressure, pulse rate, and body temperature), and electrocardiographic parameters and by conducting physical examinations and laboratory assessments (hematology, blood chemistry, and urinalysis).

[2] = design: method as in PMID 15116058; conditions: coadministered with gemfibrozil; cited from earlier work
[3] = tested on: patients with acute coronary syndrome; design: method as in PMID 20190281; conditions: cited from earlier work
[4] = tested on: patients with coronary artery disease; design: method as in earlier work; conditions: cited from earlier work
[5] = tested on: patients receiving statins; design: method as in PMID 28845751; conditions: cited from earlier work
[6] = tested on: patients with coronary artery disease; design: method as in PMID 28834471; conditions: cited from earlier work

With CC(C)c1nc(N(C)S(C)(=O)=O)nc(-c2ccc(F)cc2)c1/C=C/[C@@H](O)C[C@@H](O)CC(=O)O [Rosuvastatin, rosuvastatin] the “Rosuvastatin AUC0-inf (relative bioavailability), ratio of geometric LS means” value ([1]; coadministered with AZD5718 200 mg vs alone, 90% CI 86%-116%) was 100%, the “Rosuvastatin AUC0-last, ratio of geometric LS means” value ([1]; coadministered with AZD5718 200 mg vs alone, 90% CI 87%-106%) was 96% and the “Rosuvastatin Cmax, ratio of geometric LS means” value ([1]; coadministered with AZD5718 200 mg vs alone, 90% CI 107%-146%) was 125%. For the same molecule, the “Increase in rosuvastatin Cmax” value ([1]; coadministration with AZD5718 tablets vs alone) was “about 25%”, the AUC(0-inf) ([1]; rosuvastatin 10 mg alone, fasted, n = 9, read-out: Rosuvastatin AUC0-inf, arithmetic mean (SD)) was 45.3 ng·h/mL and the AUC(0-inf) ([1]; rosuvastatin 10 mg alone, fasted, n = 9, read-out: Rosuvastatin AUC0-inf, geometric mean (%CV)) was 41 ng·h/mL. It also gave a half-life ([1]; rosuvastatin 10 mg alone, fasted, n = 9, read-out: Rosuvastatin t1/2 lambda z, arithmetic mean (SD) (converted)) of 16 h, a half-life ([1]; rosuvastatin 10 mg alone, fasted, n = 9, read-out: Rosuvastatin t1/2 lambda z, geometric mean (%CV) (converted)) of 14.7 h and an AUC(0-t) ([1]; rosuvastatin 10 mg alone, fasted, n = 12, read-out: Rosuvastatin AUC0-last, arithmetic mean (SD)) of 54.2 ng·h/mL. For the same molecule, the AUC(0-t) ([1]; rosuvastatin 10 mg alone, fasted, n = 12, read-out: Rosuvastatin AUC0-last, geometric mean (%CV)) was 45.3 ng·h/mL, the Cmax ([1]; rosuvastatin 10 mg alone, fasted, n = 12, read-out: Rosuvastatin Cmax, arithmetic mean (SD)) was 5.56 ng/mL and the Cmax ([1]; rosuvastatin 10 mg alone, fasted, n = 12, read-out: Rosuvastatin Cmax, geometric mean (%CV)) was 4.59 ng/mL. The AUC(0-inf) ([1]; rosuvastatin 10 mg plus AZD5718 200-mg tablet, fasted, n = 10, read-out: Rosuvastatin AUC0-inf, arithmetic mean (SD)) was 56.9 ng·h/mL, the AUC(0-inf) ([1]; rosuvastatin 10 mg plus AZD5718 200-mg tablet, fasted, n = 10, read-out: Rosuvastatin AUC0-inf, geometric mean (%CV)) was 50.5 ng·h/mL and the half-life ([1]; rosuvastatin 10 mg plus AZD5718 200-mg tablet, fasted, n = 10, read-out: Rosuvastatin t1/2 lambda z, arithmetic mean (SD) (converted)) was 16.4 h. For the same molecule, the half-life ([1]; rosuvastatin 10 mg plus AZD5718 200-mg tablet, fasted, n = 10, read-out: Rosuvastatin t1/2 lambda z, geometric mean (%CV) (converted)) was 16.5 h, the AUC(0-t) ([1]; rosuvastatin 10 mg plus AZD5718 200-mg tablet, fasted, read-out: Rosuvastatin AUC0-last, arithmetic mean (SD)) was 49.4 ng·h/mL and the AUC(0-t) ([1]; rosuvastatin 10 mg plus AZD5718 200-mg tablet, fasted, read-out: Rosuvastatin AUC0-last, geometric mean (%CV)) was 43.5 ng·h/mL. For the same molecule, the Cmax ([1]; rosuvastatin 10 mg plus AZD5718 200-mg tablet, fasted, read-out: Rosuvastatin Cmax, arithmetic mean (SD)) was 6.74 ng/mL, the Cmax ([1]; rosuvastatin 10 mg plus AZD5718 200-mg tablet, fasted, read-out: Rosuvastatin Cmax, geometric mean (%CV)) was 5.74 ng/mL and the “Rosuvastatin tmax, median (range)” value ([1]; rosuvastatin 10 mg alone, fasted, n = 12) was 5.00 (0.50‐6.00) h. The “Participants with influenza-like illness” value (healthy volunteers) was 0 n (%), the “Increase in rosuvastatin AUC” value [2] was 2 fold and the “Increase in rosuvastatin Cmax” value [2] was 2 fold.

For C[C@H](C#Cc1ccc(Cc2ccc(F)cc2)s1)N(O)C(N)=O [VIA‐2291], the “Left ventricular ejection fraction” value ([3]; dose-dependent) is listed as “improved left ventricular ejection fraction”, the “Appearance of new coronary lesions” value ([3]; phase 2) is listed as “prevented the appearance of new coronary lesions” and the “Leukotriene B4 production” value ([3]; phase 2) is listed as “reduced leukotriene B4 production”. The Noncalcified plaque volume ([3]; phase 2) was “lowered noncalcified plaque volume”.

For CC(c1cc2ccccc2s1)N(O)C(N)=O (centres unmarked) [zileuton], the “Flow-mediated dilation in the brachial artery” value [4] is listed as “improved flow‐mediated dilation” and the Leukotriene production [4] is listed as “reduced leukotriene production”.

In the case of “canakinumab: anti-interleukin-1β antibody”, the “Hazard ratio, recurrent cardiovascular events vs placebo” value ([5]; P = .021) is listed as 0.85 and the “Rate of recurrent cardiovascular events” value ([5]; canakinumab together with statins, placebo and statins 4.50) is listed as 3.90 events per 100 person‐years.

B1: evolocumab: proprotein convertase subtilisin/kexin type 9-neutralizing antibody (antibody, chains of the INN, looked up, V domains shown)
VH: EVQLVQSGAEVKKPGASVKVSCKASGYTLTSYGISWVRQAPGQGLEWMGWVSFYNGNTNYAQKLQGRGTMTTDPSTSTAYMELRSLRSDDTAVYYCARGYGMDVWGQGTTVTVSS
VL: ESALTQPASVSGSPGQSITISCTGTSSDVGGYNSVSWYQQHPGKAPKLMIYEVSNRPSGVSNRFSGSKSGNTASLTISGLQAEDEADYYCNSYTSTSMVFGGGTKLTVL
In the case of B1, the “Hazard ratio, recurrent cardiovascular events vs placebo” value ([6]; P < .001) is listed as 0.85, the “LDL cholesterol level, median” value ([6]; evolocumab together with statins) is listed as 30 mg/dL and the “Rate of recurrent cardiovascular events” value ([6]; evolocumab together with statins, placebo 11.3%) is listed as 9.8%.
